Experimental data reported in the supplement of paper PMC10307832.

Columns and labels:
Experiment in all cases: relative viability (nuclei count vs DMSO), 5 days (fraction); higher = more cells survive
[1] = test system: 201T
Procedure, shortened: (§1)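 Relative viability was taken as the ratio of nuclei in treated wells to nuclei in vehicle wells. Lung cancer cell lines in 1536-well plates received compounds by pin tool one day after seeding, either one drug alone or a fixed anchor-drug dose plus five library-drug doses (not always all listed) in √10 steps. Nuclei were counted on 4× images after 5 days of treatment, and values are medians of duplicate plates.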

[2] = test system: HCC-78
Procedure, shortened: as §1

[3] = test system: HCC-827
Procedure, shortened: as §1

[4] = test system: LCLC-103H
Procedure, shortened: as §1

[5] = test system: LCLC-97TM1
Procedure, shortened: as §1

[6] = test system: LOU-NH91
Procedure, shortened: as §1

[7] = test system: NCI-H1437
Procedure, shortened: as §1

[8] = test system: NCI-H1755
Procedure, shortened: as §1

[9] = test system: NCI-H1792
Procedure, shortened: as §1

[10] = test system: NCI-H2023
Procedure, shortened: as §1

[11] = test system: NCI-H2085
Procedure, shortened: as §1

[12] = test system: NCI-H2126
Procedure, shortened: as §1

[13] = test system: NCI-H2170
Procedure, shortened: as §1

[14] = test system: NCI-H2405
Procedure, shortened: as §1

[15] = test system: NCI-H441
Procedure, shortened: as §1

[16] = test system: NCI-H596
Procedure, shortened: as §1

[17] = test system: NCI-H650
Procedure, shortened: as §1

[18] = test system: NCI-H727
Procedure, shortened: as §1

[19] = test system: RERF-LC-KJ
Procedure, shortened: as §1

[20] = test system: SK-MES-1
Procedure, shortened: as §1

Q: Which relative viability ([1]; first compound 0.2 µM) does the source give for `COCC1(CO)C(=O)C2CCN1CC2` (stereo unspecified) [PRIMA-1MET] + Cc1nc(NC(=O)N2CCC[C@H]2C(N)=O)sc1-c1ccnc(C(C)(C)C(F)(F)F)c1 [Alpelisib] (partner 2 µM) here?
A: 1.04

Q: And the relative viability ([1]; first compound 0.6325 µM)?
A: 0.971

Q: What about the relative viability ([1]; first compound 2 µM) of the same compound?
A: 0.885

Q: And the relative viability ([1]; first compound 6.325 µM)?
A: 1.05

Q: And the relative viability ([1]; first compound 20 µM)?
A: 1.03

Q: And the relative viability ([2]; first compound 0.2 µM)?
A: 0.364

Q: What about the relative viability ([2]; first compound 0.6325 µM) of the same compound?
A: 0.26

Q: What about the relative viability ([2]; first compound 6.325 µM) of the same compound?
A: 0.335

Q: What about the relative viability ([2]; first compound 20 µM) of the same compound?
A: 0.0523

Q: And the relative viability ([3]; first compound 0.2 µM)?
A: 1.01

Q: And the relative viability ([3]; first compound 0.6325 µM)?
A: 0.896

Q: And the relative viability ([3]; first compound 2 µM)?
A: 0.877

Q: What about the relative viability ([3]; first compound 6.325 µM) of the same compound?
A: 0.974

Q: And the relative viability ([3]; first compound 20 µM)?
A: 0.948

Q: What about the relative viability ([4]; first compound 0.2 µM) of the same compound?
A: 1.1

Q: And the relative viability ([4]; first compound 0.6325 µM)?
A: 0.966

Q: And the relative viability ([4]; first compound 2 µM)?
A: 0.793

Q: What about the relative viability ([4]; first compound 6.325 µM) of the same compound?
A: 1.09

Q: What about the relative viability ([4]; first compound 20 µM) of the same compound?
A: 0.935

Q: What about the relative viability ([5]; first compound 0.2 µM) of the same compound?
A: 0.277

Q: And the relative viability ([5]; first compound 2 µM)?
A: 0.22

Q: What about the relative viability ([5]; first compound 6.325 µM) of the same compound?
A: 0.232

Q: What about the relative viability ([5]; first compound 20 µM) of the same compound?
A: 0.0607

Q: What about the relative viability ([6]; first compound 0.2 µM) of the same compound?
A: 0.78

Q: What about the relative viability ([6]; first compound 0.6325 µM) of the same compound?
A: 0.652

Q: What about the relative viability ([6]; first compound 2 µM) of the same compound?
A: 0.569

Q: What about the relative viability ([6]; first compound 6.325 µM) of the same compound?
A: 0.669

Q: And the relative viability ([6]; first compound 20 µM)?
A: 0.507

Q: What about the relative viability ([7]; first compound 0.2 µM) of the same compound?
A: 1

Q: And the relative viability ([7]; first compound 0.6325 µM)?
A: 0.972

Q: And the relative viability ([7]; first compound 2 µM)?
A: 1.01

Q: What about the relative viability ([7]; first compound 6.325 µM) of the same compound?
A: 1.12

Q: What about the relative viability ([7]; first compound 20 µM) of the same compound?
A: 0.926

Q: And the relative viability ([8]; first compound 0.2 µM)?
A: 0.974

Q: What about the relative viability ([8]; first compound 0.6325 µM) of the same compound?
A: 0.891

Q: What about the relative viability ([8]; first compound 2 µM) of the same compound?
A: 0.864

Q: And the relative viability ([8]; first compound 6.325 µM)?
A: 0.952

Q: And the relative viability ([8]; first compound 20 µM)?
A: 0.892

Q: What about the relative viability ([9]; first compound 0.2 µM) of the same compound?
A: 0.708

Q: And the relative viability ([9]; first compound 0.6325 µM)?
A: 0.557

Q: And the relative viability ([9]; first compound 2 µM)?
A: 0.456

Q: What about the relative viability ([9]; first compound 6.325 µM) of the same compound?
A: 0.754

Q: What about the relative viability ([9]; first compound 20 µM) of the same compound?
A: 0.687

Q: And the relative viability ([10]; first compound 0.2 µM)?
A: 0.7

Q: What about the relative viability ([10]; first compound 0.6325 µM) of the same compound?
A: 0.69

Q: And the relative viability ([10]; first compound 2 µM)?
A: 0.564

Q: And the relative viability ([10]; first compound 6.325 µM)?
A: 0.615

Q: And the relative viability ([10]; first compound 20 µM)?
A: 0.568

Q: What about the relative viability ([11]; first compound 0.2 µM) of the same compound?
A: 1.04

Q: What about the relative viability ([11]; first compound 0.6325 µM) of the same compound?
A: 0.941

Q: What about the relative viability ([11]; first compound 2 µM) of the same compound?
A: 0.962

Q: And the relative viability ([11]; first compound 6.325 µM)?
A: 0.554

Q: And the relative viability ([11]; first compound 20 µM)?
A: 0.35

Q: And the relative viability ([12]; first compound 0.2 µM)?
A: 0.822

Q: What about the relative viability ([12]; first compound 0.6325 µM) of the same compound?
A: 0.749

Q: And the relative viability ([12]; first compound 2 µM)?
A: 0.743

Q: What about the relative viability ([12]; first compound 6.325 µM) of the same compound?
A: 0.848

Q: What about the relative viability ([12]; first compound 20 µM) of the same compound?
A: 0.706

Q: And the relative viability ([13]; first compound 0.2 µM)?
A: 0.889

Q: And the relative viability ([13]; first compound 0.6325 µM)?
A: 0.749

Q: And the relative viability ([13]; first compound 2 µM)?
A: 0.864

Q: What about the relative viability ([13]; first compound 6.325 µM) of the same compound?
A: 0.847

Q: And the relative viability ([13]; first compound 20 µM)?
A: 0.733

Q: What about the relative viability ([14]; first compound 0.2 µM) of the same compound?
A: 0.517

Q: And the relative viability ([14]; first compound 0.6325 µM)?
A: 0.896

Q: What about the relative viability ([14]; first compound 6.325 µM) of the same compound?
A: 0.625

Q: And the relative viability ([14]; first compound 20 µM)?
A: 0.0731

Q: What about the relative viability ([15]; first compound 0.2 µM) of the same compound?
A: 0.648

Q: What about the relative viability ([15]; first compound 0.6325 µM) of the same compound?
A: 0.792

Q: What about the relative viability ([15]; first compound 2 µM) of the same compound?
A: 0.762

Q: And the relative viability ([15]; first compound 6.325 µM)?
A: 0.816

Q: And the relative viability ([15]; first compound 20 µM)?
A: 0.118

Q: What about the relative viability ([16]; first compound 0.2 µM) of the same compound?
A: 0.539

Q: And the relative viability ([16]; first compound 0.6325 µM)?
A: 0.446

Q: And the relative viability ([16]; first compound 2 µM)?
A: 0.586

Q: What about the relative viability ([16]; first compound 6.325 µM) of the same compound?
A: 0.673

Q: What about the relative viability ([16]; first compound 20 µM) of the same compound?
A: 0.469

Q: What about the relative viability ([17]; first compound 0.2 µM) of the same compound?
A: 1.38

Q: What about the relative viability ([17]; first compound 2 µM) of the same compound?
A: 1.08

Q: What about the relative viability ([17]; first compound 6.325 µM) of the same compound?
A: 1.02

Q: What about the relative viability ([17]; first compound 20 µM) of the same compound?
A: 0.099

Q: And the relative viability ([18]; first compound 0.2 µM)?
A: 0.592

Q: And the relative viability ([18]; first compound 0.6325 µM)?
A: 0.612

Q: And the relative viability ([18]; first compound 2 µM)?
A: 0.568

Q: And the relative viability ([18]; first compound 6.325 µM)?
A: 0.402

Q: And the relative viability ([18]; first compound 20 µM)?
A: 0.0858

Q: What about the relative viability ([19]; first compound 0.2 µM) of the same compound?
A: 0.797

Q: And the relative viability ([19]; first compound 0.6325 µM)?
A: 0.835

Q: And the relative viability ([19]; first compound 2 µM)?
A: 0.715

Q: What about the relative viability ([19]; first compound 6.325 µM) of the same compound?
A: 1.01

Q: What about the relative viability ([19]; first compound 20 µM) of the same compound?
A: 0.75

Q: And the relative viability ([20]; first compound 0.2 µM)?
A: 0.885

Q: And the relative viability ([20]; first compound 0.6325 µM)?
A: 1.02

Q: What about the relative viability ([20]; first compound 2 µM) of the same compound?
A: 0.747

Q: And the relative viability ([20]; first compound 6.325 µM)?
A: 0.823

Q: What about the relative viability ([20]; first compound 20 µM) of the same compound?
A: 0.822
